Experimental data reported in patent US20120289432A1, “PI3K MODULATORS, RHO KINASE MODULATORS AND METHODS OF IDENTIFYING AND USING SAME” (Corning Incorporated, priority 2009, published 2012).
Entries after “also recorded” stand apart in the source; their conditions may differ. Where two headings read alike, the source gives them in different places.

What was measured:
Type in all cases: cell-based, human
A431 cells = experiment: DMR modulation of the EGF-induced response in quiescent A431 cells
Method: (§1) The index was generated after normalizing each marker-induced DMR signal in the presence of the inhibitor to its corresponding signal in the absence of the inhibitor. The percentage of modulation for each marker by the inhibitor was plotted as a function of the marker. As shown from left to right in a sequential order, the DMR events used for the basis of the modulation percentage calculation are: the N-DMR (50 min after stimulation) for pinacidil in A549, the P-DMR (50 min after stimulation) for forskolin in A549, the early P-DMR event (˜10 min after histamine stimulation) and the late P-DMR event (˜30 min after histamine stimulation) for histamine in A549, and the early P-DMR event (˜5 min after EGF stimulation) and the subsequent N-DMR event (˜30 min after EGF stimulation) for EGF in A431 cells. In all cases, the amplitudes of respective DMR events were used as the basis to calculate the percentages of modulation by the PI3K inhibitors. The same procedure was used to generate FIGS. 8 to 14.
(§2) Cells were typically grown using ˜1 to 2×10^4 cells per well at passage 3 to 15 suspended in 50 μl of the corresponding culture medium in the biosensor microplate, and were cultured at 37° C. under air/5% CO2 for ˜1 day. Except for A431 which underwent one day culture followed by one starvation in serum free medium, all other cells were directly assayed without starvation. The confluency for all cells at the time of assays was ˜95% to 100%.
(§3) For biosensor cellular assays, molecule solutions were made by diluting the stored concentrated solutions with the HBSS (1× Hanks balanced salt solution, plus 20 mM Hepes, pH 7.1), and transferred into a 384 well polypropylene molecule storage plate to prepare a molecule source plate. Both molecule and marker source plates were made separately when a two-step assay was performed. In parallel, the cells were washed twice with the HBSS and maintained in 30 μl of the HBSS to prepare a cell assay plate. Both the cell assay plate and the molecule and marker source plate(s) were then incubated in the hotel of the reader system. After ˜1 hr of incubation the baseline wavelengths of all biosensors in the cell assay microplate were recorded and normalized to zero. Afterwards, a 2 to 10 minute continuous recording was carried out to establish a baseline, and to ensure that the cells reached a steady state. Cellular responses were then triggered by pipetting 10 μl of the marker solutions into the cell assay plate using the on-board liquid handler.
(§4) To study the influence of molecules on a marker-induced response, a second stimulation with the marker at a fixed dose (typically at EC80 or EC100) was applied. The resonant wavelengths of all biosensors in the microplate were normalized again to establish a second baseline, right before the second stimulation. The two stimulations were usually separated by ˜1 hr.
(§5) All studies were carried out at a controlled temperature (28° C.). At least two independent sets of experiments, each with at least three replicates, were performed.

A549 cells [1] = experiment: DMR modulation of marker-induced responses (two-step assay) in A549 cells; details: for modulation of the pinacidil response in A549 cells: compound pretreatment ~1 hr (10 micromolar), then pinacidil 10 micromolar; for modulation of the forskolin response (P-DMR) in A549 cells / modulation of the histamine response (early and late P-DMR) in A549 cells: inhibitor 10 micromolar; for modulation of the forskolin response (P-DMR) in A549 cells: forskolin 16 micromolar; for modulation of the histamine response (early and late P-DMR) in A549 cells: histamine 10 micromolar
Method: as §1, §2, §3, §4, §5

A549 cells [2] = experiment: Label-free RWG (Epic) biosensor DMR assay, agonism mode, A549 cells; details: for EC50: Homo sapiens; for maximal amplitude / maximal response of the N-DMR signal: n=4
Method: as §2
(§6) Epic® beta version wavelength interrogation system (Corning Inc., Corning, N.Y.) was used for whole cell sensing. This system consists of a temperature-control unit, an optical detection unit, and an on-board liquid handling unit with robotics. The detection unit is centered on integrated fiber optics, and enables kinetic measures of cellular responses with a time interval of ˜15 sec.
as §3, §5

A549 and A431 cells = experiment: DMR index against panels of markers across A549 and A431 cells, compared with LY294002; details: markers pinacidil, forskolin, histamine (A549), EGF (A431)
Method: as §1
Optical biosensors such as RWG biosensor measure dynamic mass redistribution (DMR) signals of cells upon stimulation. A DMR index contains the primary DMR profile or signal of a chemical acting on a panel of live cells, and the modulation index of the chemical against panels of markers across the panel of cells, a panel of markers for each cell line. […]

HepG2 cells [3] = experiment: DMR modulation of the ODN2006-induced response in HepG2 cells; details: inhibitor 10 micromolar, ODN2006 500 nM
Method: as §2
as §3, with “Cellular responses were then triggered by pipetting 10 μl of the marker solutions into the cell assay plate using the on-board liquid handler.” left out

A549 and HepG2 cells = experiment: Biosensor index against panel of cells/markers (A549 and HepG2), compared with Y-27632
Text: It is well known that many kinas inhibitors often display polypharmacology (i.e., many kinase inhibitors can modulate the activity of multi-targets in a cell). In addition, drugs including kinase inhibitors often display cell- or tissue-dependent phenotypic pharmacology, due to the many cellular factors including post-transcriptional modifications, compartmentalization of signaling cascades, alteration of key gene products in the pathway, receptor oligomerization, and constitutive receptor activity. […] Thus, the primary modes of action of a drug or drug candidate molecule, including ROCK inhibitors, are a sum of at least several types of pharmacology—polypharmacology, phenotypic pharmacology and systems (integrative) pharmacology. To correctly detect the phenotypic pharmacology of a ROCK inhibitor that acts via the inhibition of ROCK activity in live cell, one needs a panel of cells as well as panels of markers using the biosensor cellular assays. Thus, a ROCK inhibitor responsive cell line, A549, and a ROCK inhibitor unresponsive cell line, HepG2, were chosen as model systems. […]

HepG2 cells [4] = experiment: Label-free RWG biosensor DMR assay, agonism mode, HepG2 cells; details: primary profile
Method: as §2, §6
For biosensor cellular assays, molecule solutions were made by diluting the stored concentrated solutions with the HBSS (1× Hanks balanced salt solution, plus 20 mM Hepes, pH 7.1), and transferred into a 384 well polypropylene molecule storage plate to prepare a molecule source plate. […] Both the cell assay plate and the molecule and marker source plate(s) were then incubated in the hotel of the reader system. After ˜1 hr of incubation the baseline wavelengths of all biosensors in the cell assay microplate were recorded and normalized to zero. […]

[5] = inhibitor 10 micromolar, EGF 32 nM
[6] = ~30 min after histamine stimulation

| Compound | modulation of the P-DMR event of the EGF response in A431 cells (A431 cells; [5]) | modulation of the pinacidil response in A549 cells (A549 cells [1]) | modulation of the forskolin response (P-DMR) in A549 cells (A549 cells [1]) | modulation of the histamine response (early and late P-DMR) in A549 cells (A549 cells [1]) | also measured |
| --- | --- | --- | --- | --- | --- |
| Cc1cc(C(C)Nc2ccccc2)c2nc(N3CCOCC3)cc(=O)n2c1 (racemic) [PI3Kβ inhibitor II, (+/−)-7-Methyl-2-(morpholin-4-yl)-9-(1-phenylaminoethyl)-pyridol[1,2-a]-pyrimidin-4-one] | significantly attenuated | – | – | – | modulation of the late P-DMR event of the histamine response in A549 cells (A549 cells [1]; [6]): slightly suppression |
| O=c1cc(N2CCOCC2)oc2c1ccc1ccccc12 [DNA-PK inhibitor II, 2-(Morpholin-4-yl)-benzo[h]chromen-4-one] | small attenuation | little or not modulation | significant potentiation | significant potentiation | – |
| CC(=O)c1ccc(N2CCOCC2)cc1O [DNA-PK inhibitor III, 1-(2-Hydroxy-4-morpholin-4-yl-phenyl)ethanone] | small attenuation | little or not modulation | significant potentiation | significant potentiation | – |
| CC1CNCCN1S(=O)(=O)c1cccc2cnccc12 (stereo not drawn) [H-7] | – | complete or significant attenuation | – | – | – |
| CNCCNS(=O)(=O)c1cccc2cnccc12 [H-8] | – | complete or significant attenuation | – | – | – |
| NCCNS(=O)(=O)c1cccc2cnccc12 [H-9] | – | complete or significant attenuation | – | – | – |
| O=S(=O)(NCCNC/C=C/c1ccc(Br)cc1)c1cccc2cnccc12 [H-89] | – | complete or significant attenuation | – | – | – |
| NC(N)=NCCNS(=O)(=O)c1cccc2cnccc12 [HA-1004] | – | complete or significant attenuation | – | – | – |
| O=S(=O)(c1cccc2cnccc12)N1CCCNCC1 [HA-1077] | – | complete or significant attenuation | – | – | – |
| O=c1cc(N2CCOCC2)oc2c(-c3ccccc3)cccc12 [LY294002] | – | – | – | – | EC50 (A549 cells [2]; 50 min, N-DMR amplitudes ~50 min after stimulation, n=4, read-out: EC50 of the N-DMR signal): 14.7 ± 1.5 µM; maximal amplitude / maximal response of the N-DMR signal (A549 cells [2]): ~400 picometers; modulation of the pinacidil response (N-DMR) (A549 cells [1]; N-DMR 50 min after stimulation, marker signal with inhibitor normalized to signal without, FIG. 7C): −9%; modulation of the forskolin response (P-DMR) (A549 cells [1]; P-DMR 50 min after stimulation, FIG. 7C): +33%; modulation of the histamine response, early P-DMR (A549 cells [1]; ~10 min after histamine stimulation, FIG. 7C): +41%; modulation of the histamine response, late P-DMR (A549 cells [1]; ~30 min after histamine stimulation, FIG. 7C): +90% |
| O=c1cc(N2CCNCC2)oc2c(-c3ccccc3)cccc12 [LY303511] | – | – | – | – | type of DMR index compared with the PI3K inhibitor LY294002 (A549 and A431 cells): completely distinct type of DMR index |
| O=C1NC(=O)C(=Cc2ccc3nccnc3c2)S1 [PI3Kγ inhibitor, 5-quinoxalin-6-ylmethylene-thiazolindine-2,4-dione] | small attenuation | little or not modulation | significant potentiation | significant potentiation | modulation of the late P-DMR event of the histamine response in A549 cells (A549 cells [1]; [6]): moderate potentiation |
| Oc1cccc(-c2nc(N3CCOCC3)c3oc4ncccc4c3n2)c1 [PI-103] | small attenuation | little or not modulation | significant potentiation | significant potentiation | – |
| c1ccc2c(-c3ccncc3)c[nH]c2c1 [Rho kinase inhibitor III Rockout] | – | complete or significant attenuation | – | – | – |
| CC(N/C(=N\C#N)Nc1ccncc1)C(C)(C)C (stereo not drawn) [pinacidil] | – | – | – | – | EC50 (A549 cells [2]; stimulation with pinacidil, read-out: EC50 of the biosensor signal): ~5 µM |
| O=c1c(O)c(-c2ccc(O)c(O)c2)oc2cc(O)cc(O)c12 [quercetin] | small attenuation | little or not modulation | potentiated; also recorded: significant potentiation | potentiated; also recorded: significant potentiation | modulation of the N-DMR event of the EGF response in A431 cells (A431 cells; [5]): attenuated; modulation index score, EGF N-DMR (A431 cells; score +1 per 10% modulation): −5; modulation index score, EGF P-DMR (A431 cells; score +1 per 10% modulation): 0; modulation of the ODN2006 DMR signal in HepG2 cells (HepG2 cells [3]): slightly attenuated; modulation index score, forskolin (A549 cells [1]; score +1 per 10% modulation): 2; modulation index score, histamine early P-DMR (A549 cells [1]; score +1 per 10% modulation): 4; modulation index score, histamine late P-DMR (A549 cells [1]; score +1 per 10% modulation): 9; modulation index score, pinacidil (A549 cells [1]; score +1 per 10% positive modulation, opposite for negative): −1 |
| Oc1ccc(C=Cc2cc(O)cc(O)c2)cc1 [resveratrol] | small attenuation | little or not modulation | significant potentiation | significant potentiation | – |
| COC[C@H]1OC(=O)c2coc3c2[C@@]1(C)C1=C(C3=O)[C@@H]2CCC(=O)[C@@]2(C)C[C@H]1OC(C)=O [wortmannin] | – | – | – | – | EC50 (A549 cells [2]; 50 min, N-DMR amplitudes ~50 min after stimulation, n=4, read-out: EC50 of the DMR signal): 0.0727 ± 0.0034 µM; maximal amplitude / maximal response of the N-DMR signal (A549 cells [2]): ~700 picometers |
| CDK1/2 inhibitor III | – | – | – | – | DMR (biosensor) signal of the compound in A549 cells (A549 cells [2]; primary profile): negative DMR signal; modulation of the biosensor signals of the markers in the panel (A549 and HepG2 cells; pinacidil, poly(IC), PMA, SLIGKV-amide, forskolin, histamine (A549), ODN2006 (HepG2)): attenuated the biosensor signals of most of markers; biosensor index compared with the Y-27632 biosensor index (A549 and HepG2 cells; primary profiles in A549 and HepG2 and modulation index against the panel of markers): quite distinct biosensor index; DMR (biosensor) signal of the compound in HepG2 cells (HepG2 cells [4]): small decaying signal |
| Rho kinase inhibitor IV | – | complete or significant attenuation | – | – | – |
